Test system: Human embryonic fibroblasts
Assay: Cell proliferation test with extracts of Elastollan films (Giemsa stain, optical density 620 nm)
Type: cell-based
Details: extracts obtained in Eagle's medium 37° C. 3 h; cells incubated 72 h; mitomycin C 20 μg/ml for 2 h
Procedure: Elastollan films containing 0.1 and 0.5% by weight shikonin, and Elastollan films without shikonin, were tested.
Human embryonic fibroblasts were employed in these experiments. The cells were cultivated in Eagle's medium with the addition of 10% fetal calf serum and passaged twice a week using a trypsin-EDTA solution. The cells present after the 14th passage were used for the tests.
Mitomycin C dissolved in culture medium in a concentration of 20 μg/ml was used as […] control.
Extracts from Elastollan films without shikonin, Elastollan films with 0.1% by weight and 0.5% by weight shikonin (based on polyurethane), and shikonin alone, were tested.
Extracts were obtained by incubating dishes covered by the polymers to be tested (i.e. Elastollan films without or with shikonin) with Eagle's medium at 37° C. for 3 h. Undissolved solids were removed by filtering. The control with shikonin only (in the culture medium) was cultivated under the same conditions. […]
The stain retained by the cells was eluted with a phosphate buffer/alcohol mixture (1:1) at room temperature for 15 min. The optical density of the resulting solutions was determined by a spectrophotometer with a wavelength of 620 nm.

CO[C@@]12[C@H](COC(N)=O)C3=C(C(=O)C(C)=C(N)C3=O)N1C[C@@H]1N[C@@H]12 [mitomycin C, Mitomycin C]
cell growth of fibroblasts after exposure to the tested extract: no cell growth was observed

Source: patent publication US20050208101A1, “Coating composition for an implantable medical device and method for coating such a device” (priority 2002, published 2005)
